Data: ChEMBL document CHEMBL1124706, “Synthesis, antiretrovirus effects, and phosphorylation kinetics of 3'-isocyano-3'-deoxythymidine and 3'-isocyano-2',3'-dideoxyuridine” (1990)

Key:
Type in all cases: functional
[1] = tested on: MT4; experiment: Cytopathogenicity against HIV-1 induced, replication in MT-4 cells was determined; details: Homo sapiens, read-out: ED50 (the source's name)
[2] = tested on: MT4; experiment: Cytopathogenicity against HIV-2 induced replication in MT-4 cells was determined; details: Homo sapiens, read-out: ED50 (the source's name)
[3] = Ratio of CD50 value to that of ED50 value was determined and expressed as selectivity index
[4] = tested on: MT4; experiment: Cytotoxic dose to reduce the viability of MT-4 cells by 50 % was determined; details: Homo sapiens, read-out: CD50 (the source's name)

Compound | EC50 [1] [nM] | EC50 [2] [nM] | Selectivity index [3] | CC50 [4] [µM]
Cc1cn([C@H]2C[C@H](N=[N+]=[N-])[C@@H](CO)O2)c(=O)[nH]c1=O [ZIDOVUDINE] | 4 | 4 | 1580 | 6.3
[C-]#[N+]C1CC(n2cc(C)c(=O)[nH]c2=O)OC1CO (configuration not stated) | > 800 | > 800 | < 1.1 | 0.88
[C-]#[N+]C1CC(n2ccc(=O)[nH]c2=O)OC1CO (configuration not stated) | > 500000 | > 500000 | < 1 | ≥ 500
